Experiments:
FKBP12 = target: FKBP12; design: method as in PMID 18038971; conditions: 27°C printed for Q2; cited from earlier work
Recombinant human FKBP12 [1] = target: T1, Recombinant human FKBP12 (Homo sapiens, UniProt P62942); test: Thermal denaturation fluorescence (TDF) binding assay
T1 construct: made in house
Description: Thermal denaturation fluorescence (TDF). A fluorescence based thermal denaturation assay was used to detect binding to FKBP12 essentially as described in the study of Lo [38]. Final conditions were: 50 mM ammonium acetate, pH 7.0; 10 μM FKBP12; 250 μM screening compound and 5x SYPRO orange dye (Invitrogen). […] Protein was melted over the temperature range 20 to 80°C; 0.5°C increment, 30s hold. Compounds were screened for fluorescence in the absence of protein; all samples were solvent matched and repeated in triplicate on 3 separate experiments. Apparent equilibrium dissociation constants (Kd ^app) for the interaction between the protein and ligands were calculated from the change in mid-point melting temperature of the protein (Tm) on addition of ligand and transformed to 25°C using a benchmark value for the enthalpy of ligand binding of -5 kcal∙mol^-1 [39].

Recombinant human FKBP12 [2] = target: T1, Recombinant human FKBP12; test: Electrospray ionization mass spectrometry (ESI-MS) binding assay; conditions: 50°C; 100 μM ligand, 5 μM FKBP12, 10% methanol, pH 6.8; read-out: ESI-MS Kd^app
Description: Electrospray ionization mass spectrometry. Electrospray-ionization mass spectrometry (ESI-MS) was used to detect binding to FKBP12. Data was collected on a LCQ^TMDECA ion-trap instrument (ThermoQuest) run in the positive ion mode. The analyte was introduced by direct infusion and the following operating parameters were employed: nitrogen flow 100units, analyte flow 6 μl∙min^-1, capillary voltage 3.5 kV, cone voltage 25 V and capillary temperature 50°C. Spectrum were averaged over 300 scans (2s/ scan) and processed using the Bioworks Browser V 3.0 software package and ProMass 2.5 (ThermoScientific). The analyte solution consisted of 100 μM ligand, 5 μM FKBP12 in 10% methanol (v/v), 10 mM ammonium acetate, pH 6.8 incubated for 10 minutes at room temperature. Kd ^app for the interaction between the protein and ligand were calculated from the ratio of the intensity of the ion signal from free protein and protein in complex with ligand using the method of Tjernberg.

[3] = target: T2, HEK-293 cells transfected with human 11β-HSD1 (Homo sapiens, UniProt P28845); test: Scintillation proximity assay (SPA), inhibition of 11β-HSD1 reductase activity in cells; type: cell-based; conditions: for IC50: conversion of cortisone to cortisol, 40 nM [3H]-cortisone, 1% DMSO
T2 construct: HEK-293 cells stably transfected with the full length human hsd11b1 gene; expressed in transfected cells; host or cells: HEK-293
Description: Testing for inhibition of 11β-HSD1 reductase activity in cells. Candidate compounds were tested for inhibition of the conversion of cortisone to cortisol by 11β-HSD1 expressed in HEK-293 cells stably transfected with the full length human hsd11b1 gene as previously described. An established scintillation proximity assay (SPA) was carried out in a 96-well plate format, with appropriate controls. Experiments were set up in triplicate with 8 inhibitor concentration points per compound, spanning 3.5 orders of magnitude. Final solution conditions: 40 nM [^3H]-cortisone; 50 mM Tris pH 8.0, 50 mM NaCl; 1% DMSO. The anti-cortisol antibody was purchased from HyTest, Finland; radiometric quantification was carried out on a Perkin Elmer TopCount instrument. The percentage inhibition was determined relative to a non-inhibited control and the IC50 determined from a plot of percentage inhibition against compound concentration. Data were fitted global nonlinear regression using Kaleidagraph V4.0 (Synergy Software).

recombinant h11β-HSD1 = target: T3, recombinant h11β-HSD1 (Homo sapiens, UniProt P28845); test: Fluorescence assay, inhibition of 11β-HSD1 dehydrogenase activity; type: biochemical; conditions: conversion of cortisol to cortisone; 1 μM 11β-HSD1, 200 μM cortisol, 500 μM NADP, pH 7.7, 25°C; read-out: Fluoresc. Ki^app
T3 construct: made in house
Description: Testing for inhibition of 11β-HSD1 dehydrogenase activity. Candidate compounds were tested for inhibition of the conversion of cortisol to cortisone by recombinant h11β-HSD1. The dehydrogenation of cortisol is accompanied by the reduction of NADP^+ to NADPH; this was followed spectrophotometrically and scaled to a NADPH calibration curve. The excitation and emission wavelengths were 340 and 458 nm. (SpectraMax M5, Molecular Devices). The experimental conditions were 500 μM NADP, 1 μM 11β-HSD1, 200 μM cortisol 50 mM Tris, pH 7.7, 50 mM NaCl; 25°C. Reactions were carried out in sextuplicate. Ki ^app were derived from a fit of the rate of the reaction as a function of inhibitor concentration; Kaleidagraph, V4.0 [43]

11β-HSD1 = system: 11β-HSD1; design: method as in PMID 16087724; conditions: Figure 5 legend; cited from earlier work
[4] = at the mid-point melting temperature Tm, 10 μM FKBP12, 250 μM compound, pH 7.0, read-out: TDF Kd^app at Tm
[5] = value in brackets, transformed to 25°C using a benchmark enthalpy of ligand binding of -5 kcal/mol, read-out: TDF Kd^app (transformed 25°C) (converted)

T2 sequence (P28845 whole entry): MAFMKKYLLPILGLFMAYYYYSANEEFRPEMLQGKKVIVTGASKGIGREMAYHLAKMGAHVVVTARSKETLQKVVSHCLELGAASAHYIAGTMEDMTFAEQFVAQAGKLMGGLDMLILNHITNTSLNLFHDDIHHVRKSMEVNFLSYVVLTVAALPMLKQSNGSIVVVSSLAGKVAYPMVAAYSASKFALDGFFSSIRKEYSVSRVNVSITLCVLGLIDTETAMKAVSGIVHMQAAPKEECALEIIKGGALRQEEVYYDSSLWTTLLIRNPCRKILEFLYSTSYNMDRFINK
T3 sequence (P28845 whole entry): as above
T1 sequence (P62942 whole entry): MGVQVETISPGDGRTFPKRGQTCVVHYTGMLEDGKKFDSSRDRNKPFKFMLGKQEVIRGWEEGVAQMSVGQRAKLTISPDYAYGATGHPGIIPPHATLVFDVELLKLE

Kd (Recombinant human FKBP12 [1]; [4]) | Kd (Recombinant human FKBP12 [1]; [5]) | Kd (Recombinant human FKBP12 [2]) | Ki (recombinant h11β-HSD1) | Compound | other results
648 ± 88 µM | 303 µM | 281 ± 42 µM | – | CC(=O)Nc1ccccc1NC(=O)CCc1ccccc1 [Compound 4, N-(2-acetamidophenyl)-3-phenyl-propanamide] | –
– | – | – | 26 ± 7 µM | COc1ccc(C(=O)CSc2ccccn2)cc1 [Compound 8, 1-(4-methoxyphenyl)-2-(2-pyridylsulfanyl)ethanone] | IC50 [3]: 0.067 ± 0.003 µM; affinity IC50 in a cell based assay (in words) ([3]; discussion): low nanomolar
– | – | – | 142 ± 66 µM | COc1ccc(/C=C/C(=O)/C=C/c2ccc(OC)c(OC)c2)cc1OC [Compound 5, (1E,4E)-1,5-bis(3,4-dimethoxyphenyl)penta-1,4-dien-3-one] | IC50 [3]: 11.3 ± 2.6 µM
– | – | – | 248 ± 73 µM | COc1ccc2[nH]c(SCC(=O)c3ccc(O)c(O)c3)nc2c1 [Compound 7, 1-(3,4-dihydroxyphenyl)-2-[(6-methoxy-1H-benzimidazol-2-yl)sulfanyl]ethanone] | IC50 [3]: 7.9 ± 3 µM
568 ± 84 µM | 263 µM | 383 ± 52 µM | – | O=C(NCC(O)c1ccccc1)c1cccc(Cl)c1 (centres unmarked) [Compound 3, 3-chloro-N-(2-hydroxy-2-phenyl-ethyl)benzamide] | –
548 ± 38 µM | 252 µM | 313 ± 30 µM | – | O=C(CNC(=O)c1ccccc1C(=O)O)c1ccccc1 [Compound 1, 2-(phenacylcarbamoyl)benzoic acid] | –

Continued, compound first:

Compound | Kd (Recombinant human FKBP12 [1]; [4]) | Kd (Recombinant human FKBP12 [1]; [5]) | Kd (Recombinant human FKBP12 [2]) | Ki (recombinant h11β-HSD1) | other results
Cc1ccc(S(=O)(=O)CC(=O)N2CCOCC2)cc1 [Compound Q3, 2-[(4-methylbenzene)-sulfonyl]-1-(morpholin-4-yl)ethan-1-one] | – | – | – | – | Kd (FKBP12): 95 µM
Cc1ccc(SCC(=O)N2CCOCC2)cc1 [Compound Q2, 1-morpholino-2-(p-tolylsulfanyl)ethanone, reference compound] | 28 ± 8 µM | 6 µM | 197 ± 74 µM | – | Kd (FKBP12): 15 µM
CC1(C)[C@@H](OC(=O)CCC(=O)O)CC[C@]2(C)[C@H]3C(=O)C=C4[C@@H]5C[C@@](C)(C(=O)O)CC[C@]5(C)CC[C@@]4(C)[C@]3(C)CC[C@@H]12 [Carbenoxolone] | – | – | – | – | inhibitor of 11β-HSD1 (potency, type not given) (11β-HSD1): 0.02 µM
CC(NC(=O)c1ccccc1)C(O)c1ccccc1 (centres unmarked) [Compound 2, N-(2-hydroxy-1-methyl-2-phenyl-ethyl)benzamide] | 575 ± 70 µM | 266 µM | 399 ± 45 µM | – | –
Dihydroxyphenyl)-2-oxoethyl]sulfanyl}-1H-tetrazol-1-yl)benzamide [Compound 6] | – | – | – | 47 ± 13 µM | –
